According to ChEMBL document CHEMBL5055672, “Design, Synthesis, Biological Evaluation, and Computational Studies of Novel Fluorinated Candidates as PI3K Inhibitors: Targeting Fluorophilic Binding Sites” (J Med Chem, 2021):

Legend:
Assay type in all cases: functional
Conditions in all cases: read-out: GI
[1] = tested on: EKVX; assay: Cytotoxicity against human EKVX cells assessed as growth inhibition at 10 uM after 48 hrs by sulforhodamine B assay
[2] = tested on: MCF7; assay: Cytotoxicity against human MCF7 cells assessed as growth inhibition at 10 uM after 48 hrs by sulforhodamine B assay
[3] = tested on: NCI-H522; assay: Cytotoxicity against human NCI-H522 cells assessed as growth inhibition at 10 uM after 48 hrs by sulforhodamine B assay
[4] = tested on: UO-31; assay: Cytotoxicity against human UO-31 cells assessed as growth inhibition at 10 uM after 48 hrs by sulforhodamine B assay
[5] = tested on: SR; assay: Cytotoxicity against human SR cells assessed as growth inhibition at 10 uM after 48 hrs by sulforhodamine B assay
[6] = tested on: HOP-62; assay: Cytotoxicity against human HOP-62 cells assessed as growth inhibition at 10 uM after 48 hrs by sulforhodamine B assay
[7] = tested on: UACC-62; assay: Cytotoxicity against human UACC-62 cells assessed as growth inhibition at 10 uM after 48 hrs by sulforhodamine B assay
[8] = Cytotoxicity against human Hs 578T cells assessed as growth inhibition at 10 uM after 48 hrs by sulforhodamine B assay
[9] = tested on: SF-539; assay: Cytotoxicity against human SF-539 cells assessed as growth inhibition at 10 uM after 48 hrs by sulforhodamine B assay
[10] = tested on: MDA-MB-231; assay: Cytotoxicity against human MDA-MB-231 cells assessed as growth inhibition at 10 uM after 48 hrs by sulforhodamine B assay
[11] = tested on: U-251; assay: Cytotoxicity against human U-251 cells assessed as growth inhibition at 10 uM after 48 hrs by sulforhodamine B assay
[12] = tested on: CAKI-1; assay: Cytotoxicity against human CAKI-1 cells assessed as growth inhibition at 10 uM after 48 hrs by sulforhodamine B assay
[13] = tested on: CCRF-CEM; assay: Cytotoxicity against human CCRF-CEM cells assessed as growth inhibition at 10 uM after 48 hrs by sulforhodamine B assay
[14] = tested on: SF-268; assay: Cytotoxicity against human SF-268 cells assessed as growth inhibition at 10 uM after 48 hrs by sulforhodamine B assay
[15] = tested on: SNB-19; assay: Cytotoxicity against human SNB-19 cells assessed as growth inhibition at 10 uM after 48 hrs by sulforhodamine B assay
[16] = tested on: K562; assay: Cytotoxicity against human K562 cells assessed as growth inhibition at 10 uM after 48 hrs by sulforhodamine B assay
[17] = tested on: MOLT-4; assay: Cytotoxicity against human MOLT-4 cells assessed as growth inhibition at 10 uM after 48 hrs by sulforhodamine B assay
[18] = tested on: UACC-257; assay: Cytotoxicity against human UACC-257 cells assessed as growth inhibition at 10 uM after 48 hrs by sulforhodamine B assay
[19] = tested on: HL-60(TB); assay: Cytotoxicity against human HL-60(TB) cells assessed as growth inhibition at 10 uM after 48 hrs by sulforhodamine B assay

FC(F)(F)c1ccc(/C=N/NC(=S)Nc2ccccc2)cc1
inhibition of growth at 10 µM [1]: 10.3%

FC(F)(F)c1ccc(/C=N/N=c2\scc(-c3ccccc3)n2-c2ccccc2)cc1
inhibition of growth at 10 µM [2]: 41.1%

O=S(=O)(Oc1ccc(/C=N/NC(=S)Nc2ccccc2)cc1)C(F)(F)C(F)(F)C(F)(F)C(F)(F)C(F)(F)C(F)(F)C(F)(F)C(F)(F)F
inhibition of growth at 10 µM [3]: 10.1%
inhibition of growth at 10 µM [4]: 13.3%

COC(=O)/C=C1\S/C(=N\N=C\c2ccc(OS(=O)(=O)C(F)(F)C(F)(F)C(F)(F)C(F)(F)C(F)(F)C(F)(F)F)cc2)N(c2ccccc2)C1=O
inhibition of growth at 10 µM [5]: 32.7%
inhibition of growth at 10 µM [6]: 13.1%
inhibition of growth at 10 µM [7]: 17.6%
inhibition of growth at 10 µM [8]: 23.7%
inhibition of growth at 10 µM [9]: 13.7%
inhibition of growth at 10 µM [10]: 12.8%
inhibition of growth at 10 µM [11]: 10.4%
inhibition of growth at 10 µM [12]: 28%
inhibition of growth at 10 µM [13]: 22.7%
inhibition of growth at 10 µM [14]: 10.4%
inhibition of growth at 10 µM [15]: 26.4%
inhibition of growth at 10 µM [16]: 39%
inhibition of growth at 10 µM [17]: 13.4%

O=S(=O)(Oc1ccc(/C=N/NC(=S)Nc2ccccc2)cc1)C(F)(F)C(F)(F)C(F)(F)C(F)(F)F
inhibition of growth at 10 µM [18]: 14.3%
inhibition of growth at 10 µM [4]: 11.8%
inhibition of growth at 10 µM [2]: 14.2%

O=S(=O)(Oc1ccc(/C=N/N=c2\scc(-c3ccccc3)n2-c2ccccc2)cc1)C(F)(F)C(F)(F)C(F)(F)C(F)(F)C(F)(F)C(F)(F)F
inhibition of growth at 10 µM [2]: 43.5%

O=S(=O)(Oc1ccc(/C=N/N=c2\scc(-c3ccccc3)n2-c2ccccc2)cc1)C(F)(F)C(F)(F)C(F)(F)C(F)(F)C(F)(F)C(F)(F)C(F)(F)C(F)(F)F
inhibition of growth at 10 µM [2]: 46.1%

FC(F)(F)c1ccc(-c2nnc(Nc3ccccc3)s2)cc1
inhibition of growth at 10 µM [5]: 24.9%
inhibition of growth at 10 µM [19]: 26.2%
inhibition of growth at 10 µM [3]: 11%
inhibition of growth at 10 µM [12]: 11.7%
inhibition of growth at 10 µM [16]: 13.7%
inhibition of growth at 10 µM [2]: 11.4%
